{"source": "patent US20090028795A1", "about": "“NOD1 as an Anti-Tumor Agent” (priority 2005, published 2009)", "key": {"[1]": {"tested_on": "MCF-7 and MCF-7 C20 cells", "test": "Sensitivity to apoptotic stimuli, parental MCF-7 versus MCF-7 C20 cells", "format": "cell-based, human", "conditions": "C20 compared with parental cells", "description": "FIG. 1A-C illustrates Nod1 involvement in TNF-induced apoptosis. FIG. 1A provides a schematic diagram of the mutated gene that gave rise to a TNFα-resistant phenotype, and was later identified as a Nod1 mutant bearing a blasticidine (blast) gene insertion. The cell line bearing this Nod1 mutation is the MCF7-C20 cell line. The insertion from the pDisrup retroviral construct was mapped to the Nod1 gene. The junction of blasticidine fused with the Nod1 gene occurred at the 3′ end of the Nod1 gene between leucine-rich region 8 (LRR8) and leucine-rich region 9 (LRR9). […] Cell extracts from MCF-7 parental (called “wt”) and MCF-7 C20 cells were prepared and either immunoprecipitated with a monoclonal anti-NOD1 antibody (upper panel) or directly loaded onto an SDS-PAGE gel (lower panel), then transferred to PVDF membranes. Blots were analyzed by immunoblotting using the same monoclonal anti-NOD1 antibody. […] MCF-7 and MCF-7 C20 cells were treated with increasing concentrations of TNF (0-40 ng/ml) for 20 h. Cell viability was determined by propidium iodide (PI) exclusion assay and flow cytometry.\n(§1) Cell viability assays. Propidium iodide exclusion assay: Cells were stimulated as indicated for 2 days. Subsequently, cells were harvested, washed twice in FACS buffer (PBS containing 1% FCS and 0.1% NaN3) and resuspended in propidium iodide (PI)-containing FACS buffer (4 ug/ml). The extent of cell death was analyzed with a FACSCalibur flow cytometer (Becton Dickinson, Mountain View, Calif.). DAPI staining: MCF-7 cells were plated in chamber slides, and stimulated for 2 days. Cells were washed with PBS and apoptotic nuclei were stained with 1 μg/ml DAPI (Sigma Chemical Co., St. Louis, Mo.). Cells were fixed in 4% paraformaldehyde and examined by fluorescence microscopy."}, "MCF-7 cells": {"tested_on": "MCF-7 cells", "test": "Propidium iodide exclusion cell death assay, wild-type (parental/Blasto) MCF-7 cells", "format": "cell-based, human", "conditions": "wild type cells, agent alone", "method": "as §1\n(§2) To further investigate the role of Nod1 in apoptosis, a variety of cell types were incubated with the Nod1 ligand, […] (γTriDAP), which specifically activates Nod1. The cell types tested included the parental MCF-7 cell line, the Nod1-deficient MCF-7C20 clone, and a cell line engineered to contain an additional human Nod1 allele (MCF-7Nod1) so that Nod1 was over-expressed. To determine whether the resistance of C20 cells to γTriDAP-induced apoptosis resulted from the absence of Nod1, human Nod1 was stably expressed in MCF-7 C20 cells to produce Nod1-sufficient C20 cells (C20/Nod1). As another control, the parental MCF-7 cell line was transfected with an empty retroviral vector to generate MCF-7 Blasto cells. Cells were treated with γTriDAP in the presence or absence of cycloheximide (CHX) and cell death was then determined by propidium iodide staining and flow cytometry."}, "MCF-7 C20/Nod1 cells": {"tested_on": "MCF-7 C20/Nod1 cells", "test": "Propidium iodide exclusion apoptosis assay, estrogen/tamoxifen studies", "format": "cell-based, human", "description": "FIG. 12A-C illustrates that estrogen increases γTriDAP-induced apoptosis and tamoxifen inhibits γTriDAP-induced apoptosis in various MCF-7 tumor cell lines. FIG. 12A graphically illustrates the percent apoptosis in MCF-7 Blasto, MCF-7 C20 and MCF-7 C20/Nod1 cells cultured in increasing amounts or estrogen and either cycloheximide (CHX) or CHX plus γTriDAP (γTri). FIG. 12B graphically illustrates the percent apoptosis in MCF-7 Blasto, MCF-7 C20 and MCF-7 C20/Nod1 cells cultured in increasing amounts of tamoxifen and either cycloheximide (CHX) or CHX plus γTriDAP (γTri). For the estrogen studies, MCF-7 cells were cultured in charcoal-treated medium and stimulated with γTriDAP/CHX in the presence of increasing concentrations of estrogen (E2) and cell viability was measured by propidium iodide (PI) exclusion. For the tamoxifen studies, cells were treated with tamoxifen prior to addition of γTriDAP/CHX and cell viability measured by PI exclusion. […] Total protein extracts from MCF-7 Blasto, MCF-7 C20 and MCF-7 C20/Nod1 cells and from cells isolated from tumors were analyzed by immunoblotting using antibody against estrogen receptor (ERα), and ERK2 as loading control.\nas §1\nTo determine whether the presence of estrogens modulates Nod1-induced apoptotic pathway, cells were cultured in medium containing charcoal-treated serum."}, "[2]": {"tested_on": "MCF-7 Blasto, MCF-7 C20, MCF-7 C20/Nod1 and MCF-7 RIP2ΔCARD cells", "test": "Estrogen-induced proliferation (3H-thymidine) of MCF-7 cell lines", "format": "cell-based, human", "conditions": "for proliferative response to added estrogen: grown in the absence of estrogen", "method": "(§3) FIG. 11A-D illustrate that the presence of Nod1 prevents tumor growth in SCID mice. FIG. 11A graphically illustrates the tumor volume in mice injected with MCF-7 C20 (left) and MCF-7 C20/Nod1 (right) cells as a function of time. The cells (3×10^6 cells/mouse) were injected into the flanks of female SCID mice. Tumor size was measured once a week and volume was determined according to the formula (PW2×L)/2. Each line represents tumor growth observed in one mouse (n=4). As illustrated, the tumor volume diminished in mice that received Nod1 expressing tumor cells (C20/Nod1). […] FIG. 11B graphically illustrates that implanting estrogen pellets into mice prior to injection of MCF-7 Blasto, MCF-7 C20 and MCF-7 C20/Nod1 cells (3×10^6 cells/mouse) increases tumor growth except when the tumor cells express Nod1 (the C20/Nod1 cells). […] The tumor volume was determined as described above. FIG. 11C graphically illustrates the tumor volume over time in mice injected with MCF-7 Blasto, MCF-7 C20 and MCF-7 RIP2ΔCARD cells. […] FIG. 11D graphically illustrates tumor cell growth as a function of estrogen concentration. […] MCF-7 Blasto, MCF-7 C20, MCF-7 C20/Nod1 and MCF-7 RIP2ΔCARD cells were exposed to increasing concentrations of 17β-estradiol, pulsed with ^3H-thimidine and cell growth was determined by liquid scintillation. Data are representative of at least 3 independent experiments.\nRetroviral transfections. The various genes used in this study were cloned into pMSCV-Blasto, pBabe-Puro or pBabe-Neo retroviral vectors. MCF-7 cells were stably transfected using available procedures. Briefly, amphotropic 293 cells were transfected with retroviral vectors encoding selected Nod1, Nod2 and other proteins. Twenty-four hours post-transfection, cells were incubated at 32° C. overnight to produce viral particles. Target cells were infected the next day with virus-containing 293 cell supernatants containing recombinant retroviral particles. […] Cells were harvested on glass fiber filters and radioactivity measured by liquid scintillation. […]"}, "MCF-7 Nod1 cells": {"tested_on": "MCF-7 Nod1 cells", "test": "Propidium iodide exclusion cell death assay, MCF-7 cells over-expressing Nod1", "format": "cell-based, human", "conditions": "for effect on γTriDAP-induced apoptosis: inhibitor 100 uM, 30 min prior to γTriDAP/CHX for 48 h; for effect on γTriDAP-induced cell death: caspase inhibitor 50 uM, 30 min before γTriDAP/CHX for 48 h", "method": "as §1, §2"}, "MCF-7 C20 cells": {"tested_on": "MCF-7 C20 cells", "test": "Propidium iodide exclusion cell death assay, Nod1-deficient MCF-7 C20 cells", "format": "cell-based, human", "conditions": "C20 cells, charcoal-treated serum, γTriDAP/CHX", "method": "as §1\nTo further investigate the role of Nod1 in apoptosis, a variety of cell types were incubated with the Nod1 ligand, […] (γTriDAP), which specifically activates Nod1. The cell types tested included the parental MCF-7 cell line, the Nod1-deficient MCF-7C20 clone, and a cell line engineered to contain an additional human Nod1 allele (MCF-7Nod1) so that Nod1 was over-expressed. […] Cells were treated with γTriDAP in the presence or absence of cycloheximide (CHX) and cell death was then determined by propidium iodide staining and flow cytometry."}, "[3]": {"tested_on": "MCF-7 Blasto, MCF-7 C20 and MCF-7 C20/Nod1 tumors", "test": "Xenograft tumor growth in SCID mice with estrogen pellets", "format": "in vivo", "method": "as §3\nHuman xenografts in nude mice. MCF-7 Blasto, MCF-7 C20 and MCF-7 C20/Nod1 cells were trypsinized, washed once with PBS and resuspended to a concentration of 1.5×10^7/ml. Two hundred microliters of each suspension were inoculated subcutaneously into the flank of athymic SCID/SCID or SCID/Nod (non-obese diabetic) female mice. Tumor size was assessed once a week. Tumor volume was calculated.\nIn most studies, tumor formation by MCF-7 cells requires supplementation of estrogens for tumorigenesis in nude mice, even when cells are inoculated at high concentration. To further examine the role of estrogen in tumorigenesis, all three cell lines were injected into mice along with estrogen pellets (FIG. 11B). […]"}}, "data": [{"compound": "TNFα", "values": [{"measurement": "sensitivity of MCF-7 C20 cells versus parental MCF-7 cells to induced cell death", "setting": "[1]", "value": "significantly more resistant"}]}, {"compound": "C[C@@H]1C[C@@H]([C@H](O)CC2CC(=O)NC(=O)C2)C(=O)[C@@H](C)C1", "note": "[cycloheximide]", "values": [{"measurement": "cell death / apoptosis", "setting": "MCF-7 cells", "value": "No cell death"}]}, {"compound": "CC/C(=C(\\c1ccccc1)c1ccc(OCCN(C)C)cc1)c1ccccc1", "note": "[tamoxifen]", "values": [{"measurement": "effect on γTriDAP-induced cell death", "setting": "MCF-7 C20/Nod1 cells; MCF-7 cell lines treated prior to γTriDAP/CHX (FIG. 12B)", "value": "partially blocked"}, {"measurement": "effect on estrogen-induced proliferation", "setting": "[2]; MCF-7 C20 cells (data not shown)", "value": "blocked"}]}, {"compound": "IETD", "values": [{"measurement": "effect on γTriDAP-induced apoptosis", "setting": "MCF-7 Nod1 cells", "value": "marked inhibitory effects"}]}, {"compound": "17β-estradiol [estrogen]", "values": [{"measurement": "effect upon apoptosis", "setting": "MCF-7 C20 cells", "value": "little or no effect"}, {"measurement": "effect on γTriDAP-induced apoptosis", "setting": "MCF-7 C20/Nod1 cells; C20/Nod1 and Blasto cells, charcoal-treated serum, increasing estrogen", "value": "apoptosis increased in a dose-dependent manner"}, {"measurement": "proliferative response to added estrogen", "setting": "[2]; MCF-C20 and MCF-7 RIP2ΔCARD cells", "value": "strong proliferative response"}, {"measurement": "proliferative response to added estrogen", "setting": "[2]; parental and MCF-7 C20/Nod1 cells", "value": "neither the parental nor MCF-7 C20/Nod1 cell lines were stimulated to proliferate"}, {"measurement": "tumor growth", "setting": "[3]; mice injected with MCF-7 Blasto cells, estrogen pellets", "value": "tumors grew"}, {"measurement": "tumor growth", "setting": "[3]; mice injected with MCF-7 C20 cells, estrogen pellets", "value": "grew even larger"}, {"measurement": "tumor growth", "setting": "[3]; mice that received MCF-7 C20/Nod1, estrogen pellets", "value": "did not grow tumors"}]}, {"compound": "COC(=O)CC(NC(=O)OC(C)(C)C)C(=O)CF", "note": "[Boc-D-FMK]", "values": [{"measurement": "effect on γTriDAP-induced cell death", "setting": "MCF-7 Nod1 cells", "value": "abrogated"}]}, {"compound": "COc1cccc2c1C(=O)c1c(O)c3c(c(O)c1C2=O)C[C@@](O)(C(=O)CO)C[C@@H]3O[C@H]1C[C@H](N)[C@H](O)[C@H](C)O1", "note": "[doxirubicin]", "values": [{"measurement": "sensitivity of MCF-7 C20 cells versus parental MCF-7 cells to induced cell death", "setting": "[1]", "value": "equally sensitive"}]}, {"compound": "z-VAD-FMK", "values": [{"measurement": "effect on γTriDAP-induced cell death", "setting": "MCF-7 Nod1 cells", "value": "abrogated"}, {"measurement": "effect on γTriDAP-induced apoptosis", "setting": "MCF-7 Nod1 cells", "value": "blocked γTriDAP-induced apoptosis nearly completely"}]}, {"compound": "CC[C@@]1(O)C(=O)OCc2c1cc1n(c2=O)Cc2cc3ccccc3nc2-1", "note": "[camptothecin]", "values": [{"measurement": "sensitivity of MCF-7 C20 cells versus parental MCF-7 cells to induced cell death", "setting": "[1]", "value": "equally sensitive"}]}]}
